Measured values as given in patent US20150297594A1, “Combination of a 6-oxo-1,6-dihydro-pyridazine derivative having anti-cancer activity with a MEK inhibitor” (MERCK PATENT GMBH, priority 2012, published 2015).
Several values for one entry are separate records, joined by “and”; a condition that tells them apart may be missing. Identical values can stand only once.

What was measured:
[1] = tested on: human KP-4 pancreatic tumor cells; test: human KP-4 pancreatic tumor xenograft model in nude mice; type: in vivo; conditions: female BalBc nude mice, s.c. KP-4 tumors, 5 days on and 2 days off, end of treatment
Method: Method: Female BalBc nude mice (6-8 week old) where subcutaneously injected with human KP-4 pancreatic tumor cells and were divided into treatment groups (ten animals in one group) after the tumors were established.
Respective groups were administered orally with the 3-(1-{3-[5-(1-methyl-piperidin-4-ylmethoxy)-pyrimidin-2-yl]-benzyl}-6-oxo-1,6-dihydro-pyridazin -3-yl)-benzonitrile hydrochloride hydrate (100 mg/kg) or N-((S)-2,3-dihydroxy-propyl)-3-(2-fluoro-4-iodo-phenylamino)-isonicotinamide (50 mg/kg) for 5 days on and 2 days off in monotherapy or in combination. […] Statistical analysis has been done with one way ANOVA.

[2] = tested on: patient derived pancreatic tumor fragment; test: 10 patient derived pancreatic tumor models in nude mice; type: in vivo, human
Method: Combination with MEK inhibitor N-((S)-2,3-dihydroxy-propyl)-3-(2-fluoro-4-iodo-phenylamino)-isonicotinamide in 10 patient derived pancreatic tumor models:
Method: Female NMRI nude mice (6-8 week old) where subcutaneously implanted with a patient derived pancreatic tumor fragment. Animals were divided into treatments groups (ten animals in one group) after the tumors were established. Respective groups were administered orally with the 3-(1-{3-[5-(1-methyl-piperidin-4-ylmethoxy)-pyrimidin-2-yl]-benzyl}-6-oxo -1,6-dihydro-pyridazin-3-yl)-benzonitrile hydrochloride hydrate (100 mg/kg) or N-((S)-2,3-dihydroxy-propyl)-3-(2-fluoro-4-iodo-phenylamino)-isonicotinamide (100 mg/kg, MTD) for 5 days on and 2 days off in monotherapy or in combination. At the end of treatment TC values were calculated and tumor regrowth was observed. Statistical analysis has been done with one way ANOVO. […] All treatments were well tolerated.

| Compound | TC value ([1]; monotherapy 100 mg/kg orally) | TC values ([2]; female NMRI nude mice; monotherapy 100 mg/kg orally, 5 days on and 2 days off; end of treatment; the models with anti-tumor activity; hydrochloride hydrate)) | TC value ([1]; monotherapy 50 mg/kg orally) | TC values ([2]; female NMRI nude mice, monotherapy 100 mg/kg (MTD) orally, 5 days on and 2 days off, end of treatment, all 10 models) | models with anti-tumor activity ([2]; female NMRI nude mice, monotherapy 100 mg/kg orally, 5 days on and 2 days off, out of 10 models) |
| --- | --- | --- | --- | --- | --- |
| CN1CCC(COc2cnc(-c3cccc(Cn4nc(-c5cccc(C#N)c5)ccc4=O)c3)nc2)CC1.Cl.O [3-(1-{3-[5-(1-methyl-piperidin-4-ylmethoxy)-pyrimidin-2-yl]-benzyl}-6-oxo-1,6-dihydro-pyridazin-3-yl)-benzonitrile hydrochloride hydrate] | 35% | 43% and 50% |  |  |  |
| O=C(NC[C@H](O)CO)c1ccncc1Nc1ccc(I)cc1F [N-((S)-2,3-dihydroxy-propyl)-3-(2-fluoro-4-iodo-phenylamino)-isonicotinamide] |  |  | 42% | < 55% | 10 |
